We go through nine compounds from ChEMBL document CHEMBL6127047, “Nitrogen-containing heterocyclic drug products approved by the FDA in 2023: Synthesis and biological activity” (Eur J Med Chem, 2024).

Where a SMILES comes first, the peptide text is derived from it. [ ]: non-standard residue; d: D form. αMeP = C[C@@]1(C(=O)O)CCCN1

Series [1] deals with Receptor-type tyrosine-protein kinase FLT3 (Homo sapiens, UniProt P36888, ITD). It is filed as cell-based, MV4-11.
Series [2] deals with T1, Tyrosine-protein kinase BTK (Homo sapiens, UniProt Q06187).
Description: Inhibition of wild type BTK (unknown origin) stably transfected in HEK293 cells
Series [3] has as its target T1, Tyrosine-protein kinase BTK. This is another data set of the same source.
Description: Inhibition of wild type BTK (unknown origin)
Series [4] in a line: clinical. Particulars: human, in vivo, po.
Description: Oral bioavailability in human
A short description of series [5]: clinical. Particulars: human.
Another series deals with T2, Neuromedin-K receptor (Homo sapiens, UniProt P29371).
T2 sequence (P29371 whole entry): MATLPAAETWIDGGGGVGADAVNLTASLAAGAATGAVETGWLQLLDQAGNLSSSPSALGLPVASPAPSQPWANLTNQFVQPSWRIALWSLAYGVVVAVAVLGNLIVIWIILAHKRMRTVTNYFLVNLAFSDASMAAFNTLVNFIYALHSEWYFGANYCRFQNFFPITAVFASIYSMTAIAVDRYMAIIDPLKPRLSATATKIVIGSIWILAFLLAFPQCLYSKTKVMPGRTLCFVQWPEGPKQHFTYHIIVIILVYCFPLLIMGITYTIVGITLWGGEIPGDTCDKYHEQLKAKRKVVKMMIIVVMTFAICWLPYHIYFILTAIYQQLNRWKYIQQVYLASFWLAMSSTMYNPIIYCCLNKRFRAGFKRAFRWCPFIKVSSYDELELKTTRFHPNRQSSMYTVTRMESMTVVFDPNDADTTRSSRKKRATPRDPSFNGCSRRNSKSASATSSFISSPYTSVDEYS

Series [6] is described as follows: clinical. Particulars: human, in vivo, po. The source holds these as a separate data set.
Series [7] can be described thus: clinical. Particulars: human. This is another data set of the same source.
Series [8] can be described thus: Cmax in human at 200 mg. It counts as ADME.
A short description of series [9]: Apparent volume of distribution at steady state in human at 200 mg. Particulars: read-out: Vdss(app). It counts as ADME.
Series [10] can be described thus: Plasma protein binding in human. It is filed as ADME, cell-free. Particulars: read-out: PPB.
Series [11] in a line: Cmax in human. It is filed as ADME.
The nature of series [12]: AUC in human. It is filed as ADME.
For a further series, the target named is CYP3A4 (Homo sapiens, UniProt P08684). The experiment in a line: Inhibition of CYP3A4 (unknown origin) at 10 uM relative to control. It counts as ADME.
A further series is described as follows: in vivo. Particulars: mouse, iv, 3 mg/kg.

T1 sequence (Q06187 whole entry): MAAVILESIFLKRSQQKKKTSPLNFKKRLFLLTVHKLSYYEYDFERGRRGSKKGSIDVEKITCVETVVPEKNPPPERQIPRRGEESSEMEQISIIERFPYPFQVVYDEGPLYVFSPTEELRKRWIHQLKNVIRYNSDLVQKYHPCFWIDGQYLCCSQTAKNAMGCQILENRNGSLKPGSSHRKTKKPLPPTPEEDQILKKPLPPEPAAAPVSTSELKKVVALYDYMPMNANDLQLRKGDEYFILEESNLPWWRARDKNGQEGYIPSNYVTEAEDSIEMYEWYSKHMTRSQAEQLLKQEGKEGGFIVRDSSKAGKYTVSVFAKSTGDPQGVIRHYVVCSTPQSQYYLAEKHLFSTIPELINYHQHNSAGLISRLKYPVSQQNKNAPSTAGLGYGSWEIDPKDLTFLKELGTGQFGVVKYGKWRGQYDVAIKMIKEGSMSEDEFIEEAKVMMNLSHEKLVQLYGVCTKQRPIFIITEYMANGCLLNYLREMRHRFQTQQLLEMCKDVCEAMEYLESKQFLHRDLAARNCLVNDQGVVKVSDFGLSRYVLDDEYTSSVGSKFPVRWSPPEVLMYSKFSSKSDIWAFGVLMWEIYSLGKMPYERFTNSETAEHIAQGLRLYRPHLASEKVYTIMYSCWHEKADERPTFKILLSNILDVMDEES
Chain of Receptor-type tyrosine-protein kinase FLT3 (P36888 whole entry, looked up, change not shown): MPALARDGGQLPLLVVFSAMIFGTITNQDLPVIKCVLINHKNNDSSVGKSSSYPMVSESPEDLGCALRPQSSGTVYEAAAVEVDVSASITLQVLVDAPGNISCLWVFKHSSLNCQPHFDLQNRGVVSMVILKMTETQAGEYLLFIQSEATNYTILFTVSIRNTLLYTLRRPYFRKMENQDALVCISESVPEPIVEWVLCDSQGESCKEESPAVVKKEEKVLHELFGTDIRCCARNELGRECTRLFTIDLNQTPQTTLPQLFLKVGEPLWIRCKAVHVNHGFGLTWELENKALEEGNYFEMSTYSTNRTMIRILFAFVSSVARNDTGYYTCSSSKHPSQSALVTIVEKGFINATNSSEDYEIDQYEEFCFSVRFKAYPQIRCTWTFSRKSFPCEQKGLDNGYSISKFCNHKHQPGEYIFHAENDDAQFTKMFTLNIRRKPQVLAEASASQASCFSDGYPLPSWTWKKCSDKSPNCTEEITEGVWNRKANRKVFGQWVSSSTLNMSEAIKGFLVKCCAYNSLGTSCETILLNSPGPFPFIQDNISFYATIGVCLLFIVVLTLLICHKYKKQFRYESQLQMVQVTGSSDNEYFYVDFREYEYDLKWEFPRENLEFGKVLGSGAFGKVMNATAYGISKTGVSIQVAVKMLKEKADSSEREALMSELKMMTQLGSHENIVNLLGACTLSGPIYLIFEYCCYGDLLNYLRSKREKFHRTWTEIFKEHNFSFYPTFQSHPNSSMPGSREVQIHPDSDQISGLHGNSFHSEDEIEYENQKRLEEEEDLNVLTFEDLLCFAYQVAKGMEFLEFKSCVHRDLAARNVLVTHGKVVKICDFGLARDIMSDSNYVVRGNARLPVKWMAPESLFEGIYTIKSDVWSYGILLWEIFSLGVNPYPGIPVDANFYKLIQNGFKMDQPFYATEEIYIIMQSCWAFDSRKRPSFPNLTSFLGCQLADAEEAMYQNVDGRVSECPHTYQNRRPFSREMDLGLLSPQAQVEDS
Chain of CYP3A4 (P08684 whole entry): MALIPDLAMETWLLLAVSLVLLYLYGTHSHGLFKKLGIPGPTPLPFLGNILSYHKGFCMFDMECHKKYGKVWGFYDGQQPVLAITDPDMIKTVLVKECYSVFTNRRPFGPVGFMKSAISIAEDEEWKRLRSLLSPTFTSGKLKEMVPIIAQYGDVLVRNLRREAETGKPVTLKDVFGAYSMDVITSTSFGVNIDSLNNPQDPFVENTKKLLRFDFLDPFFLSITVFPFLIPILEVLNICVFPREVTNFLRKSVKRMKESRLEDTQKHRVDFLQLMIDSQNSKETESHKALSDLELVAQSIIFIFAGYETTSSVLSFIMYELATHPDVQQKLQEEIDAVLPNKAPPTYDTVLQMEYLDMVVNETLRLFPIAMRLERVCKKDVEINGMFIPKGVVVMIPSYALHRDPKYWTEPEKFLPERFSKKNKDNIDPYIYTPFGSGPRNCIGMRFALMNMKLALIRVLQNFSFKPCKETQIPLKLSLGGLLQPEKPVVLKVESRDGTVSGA
Description for Neuromedin-K receptor: Binding affinity to human recombinant NK3R assessed as inhibition constant

`CC(C)(C)c1cc(NC(=O)Nc2ccc(-c3cn4c(n3)sc3cc(OCCCN5CCOCC5)ccc34)cc2)no1` returned an IC50 in series [1] of 0.79 nM.

Consider `CC(C)(C)c1cc(NC(=O)Nc2ccc(-c3cn4c(n3)sc3cc(OCCN5CCCCC5)ccc34)cc2)no1`, for which the IC50 in series [1] came out at 0.88 nM.

For `COc1ccc(F)cc1C(=O)NCc1ccc(-c2nn([C@H](C)C(F)(F)F)c(N)c2C(N)=O)cc1`, the IC50 in series [2] was 21.2 nM; in [3], 5.69 nM. The compound further showed a bioavailability in the series “clinical [4]” of 85.5%. The same compound had a half-life in the series “clinical [5]” of 19 h.

Consider `Cc1nsc(-c2nnc3n2CCN(C(=O)c2ccc(F)cc2)[C@@H]3C)n1` [FEZOLINETANT], for which affinity at Neuromedin-K receptor was put at a Ki of 21.8 nM. The same compound showed a half-life in “clinical [5]” of 9.6 h. The concentration in the series “clinical [6]” peaked (Cmax) at 1.5 ng/mL. In “clinical [7]”, this compound showed a Vd of 189 L.

In [8], `N#CCNC(=O)c1ccc(-c2ccnc(Nc3ccc(N4CCOCC4)cc3)n2)cc1` [MOMELOTINIB] displayed a Cmax of 479 ng/mL. Also, in [9], the Vd came to 984 L. Besides, the fraction unbound in [10] turned out to be 0.09.

Compound `CCC[C@H](N[C@H]1CCc2cc(F)cc(F)c2C1)C(=O)Nc1cn(C(C)(C)CNCC(C)(C)C)cn1` [NIROGACESTAT] had a Cmax in [11] of 508 ng/mL. Also, in [12], the AUC turned out to be 3370 ng·h/mL. Besides, in “clinical [4]”, the bioavailability turned out to be 19%.

As to `CC1(C)CCC(C)(C)c2cc(Cn3cccn3)c(/C=C/c3ccc(C(=O)O)cc3)cc21` [PALOVAROTENE], at CYP3A4, the inhibition at 10 µM was determined as 99%.

`C=CC(=O)N1C[C@H](Nc2ncnc3[nH]ccc23)CC[C@@H]1C` [RITLECITINIB] gave a bioavailability in the series “clinical [4]” of 64%.

In turn, `C[C@@]1(C(=O)N[C@@H](CCC(=O)O)C(=O)O)CCCN1C(=O)CN` [TROFINETIDE] (H-Gly-[αMeP]-Glu-OH) gave a half-life in “in vivo” of 1.5 h.

What is called IC50 is the concentration that inhibits the measured activity by half. Lower therefore signals greater potency. As a reminder, the bioavailability is dose-corrected exposure relative to a reference, in per cent. Read a low bioavailability as little systemic uptake. The half-life is the time needed for the level to fall by half in the phase considered. Low readings indicate fast loss, high ones slow loss. One may read the Ki as a measure of affinity in units of concentration, obtained from inhibition or displacement. Read a high Ki as weaker binding. A word on the Cmax: it is the maximum level reached in the sampled fluid or tissue. As usually defined, the AUC is concentration integrated over time. A high value points to more exposure. Broadly, the inhibition is the percentage by which the read-out fell short of the control.
